Results reported in ChEMBL document CHEMBL1158009, “Paclitaxel analogues from Taxus x media cv. Hicksii” (1999).

Assays:
MCF7 = test: Cytotoxicity against human MCF7 cells assessed as ratio of ED50 for drug to ED50 for paclitaxel; format: functional
MCF7R = test: Cytotoxicity against human MCF7R cells assessed as ratio of ED50 for drug to ED50 for paclitaxel; format: functional
Tubulin = test: Inhibition of microtubule assembly = assessed as ratio of ED50 for drug to ED50 for paclitaxel

Row | SMILES | Ratio ED50 (MCF7) | Ratio ED50 (MCF7R) | Ratio ED50 (Tubulin)
1 | CC(=O)O[C@H]1C(=O)[C@@]2(C)[C@H]([C@H](OC(=O)c3ccccc3)[C@]3(O)C[C@H](OC(=O)[C@H](O)[C@H](NC(=O)/C=C/c4ccccc4)c4ccccc4)C(C)=C1C3(C)C)[C@]1(OC(C)=O)CO[C@@H]1C[C@@H]2O | 1.3 | 1.2 | 1.2
2 | CCC(C)C(=O)N[C@H](c1ccccc1)[C@@H](O)C(=O)O[C@H]1C[C@@]2(O)[C@@H](OC(=O)c3ccccc3)[C@@H]3[C@]4(OC(C)=O)CO[C@@H]4C[C@H](O)[C@@]3(C)C(=O)[C@H](OC(C)=O)C(=C1C)C2(C)C (some centres not stated) | >10 | – | 6.7
3 | C/C=C(\C)C(=O)O[C@H]1[C@@H]2[C@]3(OC(C)=O)CO[C@@H]3C[C@H](O)[C@@]2(C)C(=O)[C@H](OC(C)=O)C2=C(C)[C@@H](OC(=O)[C@H](O)[C@H](NC(=O)c3ccccc3)c3ccccc3)C[C@]1(O)C2(C)C [ISOCEPHALOMANNINE] | 12 | – | 1.1
